In patent publication US6762188B1, “Pharmaceutically active benzoquinazoline compounds” (SmithKline Beecham Corporation, priority 1990, dated 2004):
Where two headings read alike, the source gives them in different places.

Assays:
[1] = target: T1, Mammalian Thymidylate Synthase (Homo sapiens, UniProt P04818); assay: Thymidylate synthase inhibition, tritium release assay; type: biochemical
T1 construct: made in house; host or cells: Escherichia coli

[2] = tested on: SW480 human colon adenocarcinoma; assay: Tumor cell culture cytotoxicity (MTT dye reduction), SW480
Protocol: SW480 and WiDr colon adenocarcinomas, MCF-7 breast adenocarcinoma, A427 lung carcinoma and MOLT-4 T-cell leukemia were used for the primary screening of compounds. […] MCF-7, A427 and SW480 were grown in the above medium further supplemented with sodium pyruvate.
(§1) Cells are seeded into 96-well plates using a Perkin-Elmer Pro/pette. SW480 and A427 were seeded at 8,000 cells per well, MCF-7 at 10,000, Widr at 7500, and MOLT-4 at 12,500 cells per well, all in 150 µl of medium. Prior to the addition of drugs, cultures were incubated for 24 hrs at 37°. Compounds were added at 2×concentration in 150 l of medium and each concentration was assayed in triplicate. If DMSO or ethanol were used to solubilize compounds, appropriate controls were run if the concentration exceeded 0.01%. Cultures were incubated for 72 hours (96 hours for SW480 and MCF-7) in a 37° humidified incubator at 5% CO2. Inhibition of cell growth was measured using the MTT dye reduction assay.
(§2) Cell dilutions for a standard curve were prepared from a 72 hour log-phase culture. Serial dilutions were seeded in triplicate in 96-well plates and incubated at 37 degrees for one hour. MTT (3-(4,5-dimethylthiazol-2-yl)-2,5-diphenyltetrazolium bromide) was dissolved in PBS at 5 mg/ml and sonicated for 30 seconds. Using the Perkin Elmer Pro/pette, 200 μl of medium was removed and 100 μl of MTT added to the wells of the standard curve and test plates. Suspension cultures were spun for 5 min at 1000 rpm before removing medium from the wells. Plates were incubated for 1 hour at 370 on a platform shaker. Following this incubation 100 ml of medium was removed from the wells and 100 μl of DMSO added to each well. The plates were sonicated for approximately 10 seconds to solubilize the precipitated formazan dye. The absorbance of each well was measured using a Titertek Multiscan MC microtiter plate reader at 570 nm with a reference wavelength of 750 nm. Data was collected using a Mariachi Seed-2 and stored and analyzed using an IBM-AT and Lotus 1-2-3 software.

[3] = Cell culture cytotoxicity, D98; type: cell-based; conditions: human, D98 bone marrow cell line, read-out: Tumor Cell Culture Cytotoxicity IC50 Other (D98)
Protocol: as §1, §2

[4] = Cell culture cytotoxicity, L cells; type: cell-based; conditions: mouse, L fibroblast cell line, read-out: Tumor Cell Culture Cytotoxicity IC50 Other (L)
Protocol: as §1, §2

[5] = Homo sapiens, SW480, read-out: Tumor Cell Culture Cytotoxicity IC50 SW480, Table B, fully aromatic 3-amino derivatives
[6] = Table B, fully aromatic 3-amino derivatives
[7] = Table C, 5,6-dihydro 3-amino derivatives
[8] = Table E, fully aromatic 3-methyl derivatives
[9] = Homo sapiens, SW480, read-out: Tumor Cell Culture Cytotoxicity IC50 SW480, Table E, fully aromatic 3-methyl derivatives
[10] = Table D, 5,6-dihydro 3-methyl derivatives
[11] = Homo sapiens, SW480, read-out: Cell Culture Cytotoxicity CCCT SW-480, Table F, fully aromatic p-aminobenzoylglutamates
[12] = Homo sapiens, SW480, read-out: Cell Culture Cytotoxicity CCCT SW-480, Table G, dihydrobenzoquinazoline p-aminobenzoylglutamates

T1 sequence (P04818 whole entry): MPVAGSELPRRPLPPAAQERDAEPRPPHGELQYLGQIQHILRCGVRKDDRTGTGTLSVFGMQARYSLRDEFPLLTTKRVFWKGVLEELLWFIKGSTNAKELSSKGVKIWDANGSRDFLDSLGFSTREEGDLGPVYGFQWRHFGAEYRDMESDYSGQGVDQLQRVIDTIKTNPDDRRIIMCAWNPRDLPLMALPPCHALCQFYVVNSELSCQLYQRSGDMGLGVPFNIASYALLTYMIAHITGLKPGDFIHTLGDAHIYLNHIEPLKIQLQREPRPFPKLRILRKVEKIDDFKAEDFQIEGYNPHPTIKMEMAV

Row | Compound | IC50 [1] | IC50 [2, 5] | further results
1 | Nc1nc2c3ccccc3c3ccccc3c2c(=O)[nH]1 [2-Aminodibenzo(f,h)quinazolin-4(3H)-one] | 1 to 300 µM | 4 µM | 
2 | Nc1nc2ccc3c(N)c(Br)ccc3c2c(=O)[nH]1 [3,7-Diamino-8-bromobenzo(f)quinazolin-1(2H)-one] | 1 to 300 µM | 20 µM | 
3 | Nc1ccc2c(ccc3nc(N)nc(O)c32)c1 [3,8-Diaminobenzo(f)quinazolin-1(2H)-one] | 1 to 300 µM | 100 µM | IC50 at 72 h [3, 6]: 53 µM; IC50 at 72 h [4, 6]: 40 µM
4 | Nc1ccc2ccc3nc(N)[nH]c(=O)c3c2c1 [3,9-Diaminobenzo(f)quinazolin-1(2H)-one] | < 1 µM | 80 µM | 
5 | Nc1nc2ccc3cc(F)cc(N)c3c2c(=O)[nH]1 [3,10-Diamino-8-fluorobenzo(f)quinazolin-1(2H)-one] | 1 to 300 µM | 70 µM | 
6 | Nc1nc2ccc3ccc(Br)c(N)c3c2c(=O)[nH]1 [3,10-Diamino-9-bromobenzo(f)quinazolin-1(2H)-one] | < 1 µM | 30 µM | 
7 | CSc1ccc2c(c1)-c1c(nc(N)[nH]c1=O)CC2 [3-Amino-5,6-dihydro-9-(methylthio)benzo(f)quinazolin-1(2H)-one] |  |  | IC50 at 72 h [4, 7]: 46 µM
8 | COCc1cc2nc(N)nc(O)c2c2ccccc12 [3-Amino-6-(methoxymethyl)benzo(f)quinazolin-1(2H)-one] | 1 to 300 µM | 60 µM | IC50 at 72 h [3, 6]: 74 µM; IC50 at 72 h [4, 6]: 56 µM
9 | Nc1nc2ccc3c(F)cccc3c2c(=O)[nH]1 [3-Amino-7-fluorobenzo(f)quinazolin-1(2H)-one] | 1 to 300 µM | 30 µM | 
10 | Nc1nc2ccc3c(I)cccc3c2c(=O)[nH]1 [3-Amino-7-iodobenzo(f)quinazolin-1(2H)-one] | 1 to 300 µM | 10 µM | 
11 | Nc1nc2ccc3c([N+](=O)[O-])c(Br)ccc3c2c(=O)[nH]1 [3-Amino-8-bromo-7-nitrobenzo(f)quinazolin-1(2H)-one] | 1 to 300 µM | 25 µM | 
12 | CCN(CC)S(=O)(=O)c1cc2c(ccc3nc(N)[nH]c(=O)c32)cc1Br [3-Amino-8-bromo-N,N-diethyl-1,2-dihydro-1-oxobenzo(f)quinazoline-9-sulfonamide] | 1 to 300 µM | 2.5 µM | 
13 | Nc1nc2ccc3cc(F)cc([N+](=O)[O-])c3c2c(=O)[nH]1 [3-Amino-8-fluoro-10-nitrobenzo(f)quinazolin-1(2H)-one] | 1 to 300 µM | 50 µM | 
14 | CCSc1ccc2c(c1)-c1c(nc(N)[nH]c1=O)CC2 [3-Amino-9-(ethylthio)-5,6-dihydrobenzo(f)quinazolin-1(2H)-one] |  |  | IC50 at 72 h [3, 7]: 54 µM; IC50 at 72 h [4, 7]: 33 µM
15 | Nc1nc2ccc3ccc(Br)c([N+](=O)[O-])c3c2c(=O)[nH]1 [3-Amino-9-bromo-10-nitrobenzo(f)quinazolin-1(2H)-one] | < 1 µM | 20 µM | 
16 | Cc1cc2nc(N)nc(O)c2c2cc(Cl)ccc12 [3-Amino-9-chloro-6-methylbenzo(f)quinazolin-1(2H)-one] | < 1 µM | 2 µM | 
17 | CCc1ccc2ccc3nc(N)[nH]c(=O)c3c2c1 [3-Amino-9-ethylbenzo(f)quinazolin-1(2H)-one] | < 1 µM | 20 µM | 
18 | Nc1nc2ccc3ccc(O)cc3c2c(=O)[nH]1 [3-Amino-9-hydroxybenzo(f)quinazolin-1(2H)-one] | < 1 µM | 40 µM | 
19 | Cc1ccc2ccc3nc(N)nc(O)c3c2c1 [3-Amino-9-methylbenzo(f)quinazolin-1(2H)-one] | < 1 µM | 30 µM | IC50 at 72 h [4, 6]: 8 µM

Row | Compound | IC50 [1] | IC50 [2, 5] | further results
20 | Cc1nc2ccc3ccc(CNc4ccc5c(c4)CCC5=O)cc3c2c(=O)[nH]1 [3-Methyl-9-(((1-oxo-5-indanyl)amino)methyl)benzo)[f]quinazolin-1(2H)-one] |  |  | IC50 at 72 h [3, 8]: 0.25 µM; IC50 at 72 h [4, 8]: 0.058 µM; IC50 [2, 9]: 0.015 µM
21 | Cc1nc2ccc3ccc(CNc4ccc(C(=O)CCC(=O)O)cc4)cc3c2c(=O)[nH]1 [4-(4-(((1,2-Dihydro-3-methyl-1-oxobenzo[f]quinazolin-9-yl)methyl)amino)phenyl)-4-oxobutyric acid] |  |  | IC50 at 72 h [3, 8]: 13.5 µM; IC50 at 72 h [4, 8]: 8.8 µM; IC50 [2, 9]: 0.7 µM
22 | Cc1nc(O)c2c(n1)CCc1ccc(I)cc1-2 [5,6-Dihydro-9-iodo-3-methylbenzo(f)quinazolin-1(2H)-one] |  |  | IC50 at 72 h [3, 10]: 70 µM; IC50 at 72 h [4, 10]: 80 µM
23 | Cc1nc2ccc3c(Cl)cccc3c2c(=O)[nH]1 [7-Chloro-3-methylbenzo(f)quinazolin-1(2H)-one] |  |  | IC50 at 72 h [4, 8]: 84 µM
24 | Cc1nc2ccc3ccc(Cl)cc3c2c(=O)[nH]1 [9-Chloro-3-methylbenzo(f)quinazolin-1(2H)-one] |  |  | IC50 at 72 h [3, 8]: 82 µM; IC50 at 72 h [4, 8]: 80 µM
25 | Cc1nc(O)c2c(ccc3ccc(F)cc32)n1 [9-Fluoro-3-methylbenzo(f)quinazolin-1(2H)-one] |  |  | IC50 at 72 h [3, 8]: 72 µM; IC50 at 72 h [4, 8]: 50 µM
26 | Cc1nc2ccc3ccc(/C=C/c4ccc(C(=O)N[C@@H](CCC(=O)O)C(=O)O)cc4)cc3c2c(=O)[nH]1 [(E)-N-(4-(2(1,2-Dihydro-3-methyl-1-oxobenzo[f]quinazolin-9-yl)vinyl)benzoyl)-L-glutamic acid] |  |  | IC50 [2, 11]: > 100 µM
27 | Cc1nc2ccc3ccc(CN(C)c4ccc5c(c4)CN([C@@H](CCC(=O)O)C(=O)O)C5=O)cc3c2c(=O)[nH]1 [(S)-2-(5-(((1,2-Dihydro-3-methyl-1-oxobenzo[f]quinazolin-9-yl)methyl)methylamino)-1-oxo-2-isoindolinyl)glutaric acid] |  |  | IC50 [2, 11]: 0.5 µM
28 | Cc1nc2ccc3ccc(CNc4ccc5c(=O)n([C@@H](CCC(=O)O)C(=O)O)sc5c4)cc3c2c(=O)[nH]1 [CH3,9-CH2NH, 2′-SNglu, (S)-2-(2.3-Dihydro-6-(((1,2-dihydro-3-methyl-1-oxobenzo[f]quinazolin-9-yl)methyl)amino)-3-oxo-1,2-benxisothiazol-2-yl)glutaric acid] |  |  | IC50 ([2]; read-out: Cell Culture Cytotoxicity CCCT SW-480, Table F, fully aromatic p-aminobenzoylglutamates): 2 µM
29 | Cc1nc2c(c(=O)[nH]1)-c1ccc([N+](=O)[O-])cc1CC2 [Example 8-NO2, 5,6-dihydro-3-methyl-8-nitrobenzo[f]quinazolin-1(2H)-one] |  |  | IC50 at 72 h [3, 10]: 52 µM; IC50 at 72 h [4, 10]: 52 µM; IC50 ([2]; Homo sapiens, SW480, read-out: Tumor Cell Culture Cytotoxicity IC50 SW480, Table D, 5,6-dihydro 3-methyl derivatives): 100 µM
30 | C=Cc1ccc2ccc3nc(N)[nH]c(=O)c3c2c1 [Example 9-Ethenyl, 3-Amino-9-vinylbenzo[f]quinazolin-1(2H)-one] |  | 6 µM | 
31 | Cc1nc2ccc3ccc(CCc4ccc(C(=O)N[C@@H](CCC(=O)O)C(=O)O)cc4)cc3c2c(=O)[nH]1 [N-(4-(2-(1,2-Dihydro-3-methyl-1-oxobenzo[f]quinazolin-9-yl)ethyl)benzoyl)-L-glutamic acid] |  |  | IC50 [2, 11]: 9 µM
32 | Cc1nc2ccc3cc(CNc4ccc(C(=O)N[C@@H](CCC(=O)O)C(=O)O)cc4)ccc3c2c(=O)[nH]1 [N-(4-(((1,2-Dihydro-3-methyl-1-oxobenzo[f]quinazolin-8-yl)methyl)amino)benzoyl)-L-glutamic acid] |  |  | IC50 [2, 11]: > 100 µM
33 | C#CCN(c1ccc(C(=O)N[C@@H](CCC(=O)O)C(=O)O)cc1)S(=O)(=O)c1ccc2c(c1)CCc1nc(N)[nH]c(=O)c1-2 [N-(4-(((3-Amino-1,2,5,6-tetrahydro-1-oxobenzo(f)quinazolin-8-yl)sulfonyl)(2-propynyl)amino)benzoyl)-L-glutamic acid] |  |  | IC50 [2, 12]: > 50 µM
34 | Nc1nc2c(c(=O)[nH]1)-c1ccc(S(=O)(=O)Nc3ccc(C(=O)N[C@@H](CCC(=O)O)C(=O)O)cc3)cc1CC2 [N-(4-(((3-Amino-1,2,5,6-tetrahydro-1-oxobenzo(f)quinazolin-8-yl)sulfonyl)amino)benzoyl)-L-glutamic acid] |  |  | IC50 [2, 12]: 25 µM
35 | Nc1nc2ccc3ccc(NS(=O)(=O)c4ccc(C(=O)N[C@@H](CCC(=O)O)C(=O)O)cc4)cc3c2c(=O)[nH]1 [N-(4-(((3-Amino-1,2-dihydro-1-oxobenzo(f)quinazolin-9-yl)amino)sulfonyl)benzoyl)-L-glutamic acid] |  |  | IC50 [2, 11]: > 100 µM
36 | Nc1nc2c(c(=O)[nH]1)-c1cc(S(=O)(=O)Nc3ccc(C(=O)N[C@@H](CCC(=O)O)C(=O)O)cc3)c(Br)cc1CC2 [N-(4-(((3-Amino-8-bromo-1,2,5,6-tetrahydro-1-oxobenzo(f)quinazolin-9-yl)sulfonyl)amino)benzoyl)-L-glutamic acid] |  |  | IC50 [2, 12]: > 50 µM
37 | Cc1nc2c(c(=O)[nH]1)-c1cc(S(=O)(=O)N(C)c3ccc(C(=O)N[C@@H](CCC(=O)O)C(=O)O)cc3)ccc1CC2 [N-(4-(Methyl((1,2,5,6-tetrahydro-3-methyl-1-oxobenzo(f)quinazolin-9-yl)sulfonyl)amino)benzoyl)-L-glutamic acid] |  |  | IC50 [2, 12]: > 50 µM
38 | Cc1nc2ccc3ccc(CNc4ccc(C(=O)N[C@@H](CCC(=O)O)C(=O)O)s4)cc3c2c(=O)[nH]1 [N-((5-(((1,2-Dihydro-3-methyl-1-oxobenzo[f]quinazolin-9-yl)methyl)amino-2-thienyl)carbonyl)-L-glutamic acid] |  |  | IC50 ([2]; read-out: Tumor Cell Culture Cytotoxicity IC50 SW480, Table E, fully aromatic 3-methyl derivatives): 0.1 µM
